System: Aβ42
Assay: Aβ42 IC50 assay (SHSYSY-APP cell-based screening, UCSD sandwich Aβ42 ELISA)
From the text: FIG. 8: Representative concentration response curves of Compound 1 using our primary and orthogonal medium throughput SHSYSY-APP cell-based screening assays (10). Compounds are first screened two times in triplicate in our UCSD sandwich Aβ42 ELISA on sequential days and the average of the two assays must be within 3-fold of each other before being entered into the CDD relational database. The UCSD sandwich ELISA assay can easily handle 20 compounds per week. Compounds with Aβ42 IC50 values <100 nM continue through the testing funnel. The Z′ score and the % CV for the UCSD Aβ42 sandwich ELISA assay are 0.8 and 4, respectively. For the Meso Scale triplex assay the Z′ scores are 0.7, 0.9 and 0.6 Aβ42, Aβ40 and Aβ38, respectively and the % CV's are 7, 2 and 1 for Aβ42, Aβ40 and Aβ38, respectively. Aβ total peptides are measured using a sandwich ELISA.
Tabular Results of A1142 Assays Conducted on Compounds of Examples 5-102. Assays are Aβ42 IC50 (nM).

Row | IC50 | SMILES
1 | 0.015 µM | COc1cc([C@H](C)Nc2nnc(-c3ccc(-n4cnc(C)c4)c(OC)n3)cc2C)ccc1F [Example 47, (S)—N-(1-(4-fluoro-3-methoxyphenyl)ethyl)-6-(6-methoxy-5-(4-methyl-1H-imidazol-1-yl)pyridin-2-yl)-4-methylpyridazin-3-amine]
2 | 0.0063 µM | COc1nc(-c2cc(C)c(N[C@@H](C)c3cccc(C)c3)nn2)ccc1-n1cnc(C)c1 [Example 48, (S)-6-(6-methoxy-5-(4-methyl-1H-imidazol-1-yl)pyridin-2-yl)-4-methyl-N-(1-(m-tolyl)ethyl)pyridazin-3-amine]
3 | 0.007 µM | COc1nc(-c2cc(C)c(N[C@@H](C)c3cccc(C(F)(F)F)c3)nn2)ccc1-n1cnc(C)c1 [Example 49, (S)-6-(6-methoxy-5-(4-methyl-1H-imidazol-1-yl)pyridin-2-yl)-4-methyl-N-(1-(3-(trifluoromethyl)phenyl)ethyl)pyridazin-3-amine]
4 | 0.0083 µM | COc1nc(-c2cc(C)c(N[C@@H](C)c3ccc(F)c(C)c3)nn2)ccc1-n1cnc(C)c1 [Example 51, (S)—N-(1-(4-fluoro-3-methylphenyl)ethyl)-6-(6-methoxy-5-(4-methyl-1H-imidazol-1-yl)pyridin-2-yl)-4-methylpyridazin-3-amine]
5 | 0.005 µM | COc1nc(-c2cc(C)c(N[C@@H](C)c3cc(F)c(F)c(F)c3)nn2)ccc1-n1cnc(C)c1 [Example 52, (S)-6-(6-methoxy-5-(4-methyl-1H-imidazol-1-yl)pyridin-2-yl)-4-methyl-N-(1-(3,4,5-trifluorophenyl)ethyl)pyridazin-3-amine]
6 | 0.0098 µM | COc1nc(-c2cc(C)c(N[C@@H](C)c3ccc(F)c(C(F)(F)F)c3)nn2)ccc1-n1cnc(C)c1 [Example 53, (S)—N-(1-(4-fluoro-3-(trifluoromethyl)phenyl)ethyl)-6-(6-methoxy-5-(4-methyl-1H-imidazol-1-yl)pyridin-2-yl)-4-methylpyridazin-3-amine]
7 | 0.0033 µM | COc1nc(-c2cc(C)c(N[C@@H](C)c3ccccc3C)nn2)ccc1-n1cnc(C)c1 [Example 55, (S)-6-(6-methoxy-5-(4-methyl-1H-imidazol-1-yl)pyridin-2-yl)-4-methyl-N-(1-(o-tolyl)ethyl)pyridazin-3-amine]
8 | 0.003 µM | COc1nc(-c2cc(C)c(N[C@@H](C)c3ccccc3C(F)(F)F)nn2)ccc1-n1cnc(C)c1 [Example 56, (S)-6-(6-methoxy-5-(4-methyl-1H-imidazol-1-yl)pyridin-2-yl)-4-methyl-N-(1-(2-(trifluoromethyl)phenyl)ethyl)pyridazin-3-amine]
9 | 0.004 µM | COc1nc(-c2cc(C)c(N[C@H](c3ccc(F)cc3)C(C)C)nn2)ccc1-n1cnc(C)c1 [Example 57, (S)—N-(1-(4-fluorophenyl)-2-methylpropyl)-6-(6-methoxy-5-(4-methyl-1H-imidazol-1-yl)pyridin-2-yl)-4-methylpyridazin-3-amine]
10 | 0.012 µM | COc1nc(-c2cc(C)c(N[C@@H](C)C3CCCCC3)nn2)ccc1-n1cnc(C)c1 [Example 58, (S)—N-(1-cyclohexylethyl)-6-(6-methoxy-5-(4-methyl-1H-imidazol-1-yl)pyridin-2-yl)-4-methylpyridazin-3-amine]
11 | 0.778 µM | COc1nc(-c2cc(C)c(N[C@@H](C)c3ccncc3)nn2)ccc1-n1cnc(C)c1 [Example 59, (S)-6-(6-methoxy-5-(4-methyl-1H-imidazol-1-yl)pyridin-2-yl)-4-methyl-N-(1-(pyridin-4-yl)ethyl)pyridazin-3-amine]
12 | 0.012 µM | COc1nc(-c2cc(C)c(NC3(c4ccc(F)cc4)CC3)nn2)ccc1-n1cnc(C)c1 [Example 60, N-(1-(4-fluorophenyl)cyclopropyl)-6-(6-methoxy-5-(4-methyl-1H-imidazol-1-yl)pyridin-2-yl)-4-methylpyridazin-3-amine]
13 | 0.027 µM | COc1nc(-c2cc(C)c(N[C@@H](C)C(C)C)nn2)ccc1-n1cnc(C)c1 [Example 61, (S)-6-(6-methoxy-5-(4-methyl-1H-imidazol-1-yl)pyridin-2-yl)-4-methyl-N-(3-methylbutan-2-yl)pyridazin-3-amine]
14 | 2.16 µM | COC[C@H](C)Nc1nnc(-c2ccc(-n3cnc(C)c3)c(OC)n2)cc1C [Example 62, (S)-6-(6-methoxy-5-(4-methyl-1H-imidazol-1-yl)pyridin-2-yl)-N-(1-methoxypropan-2-yl)-4-methylpyridazin-3-amine]
15 | 0.079 µM | CC[C@H](C)Nc1nnc(-c2ccc(-n3cnc(C)c3)c(OC)n2)cc1C [Example 63, (S)—N-(sec-butyl)-6-(6-methoxy-5-(4-methyl-1H-imidazol-1-yl)pyridin-2-yl)-4-methylpyridazin-3-amine]
16 | > 10 µM | COc1nc(-c2cc(C)c(N[C@@H](C)CO)nn2)ccc1-n1cnc(C)c1 [Example 64, (S)-2-((6-(6-methoxy-5-(4-methyl-1H-imidazol-1-yl)pyridin-2-yl)-4-methylpyridazin-3-yl)amino) propan-1-ol]
17 | 0.053 µM | COc1nc(-c2cc(C)c(N[C@H](C)C(C)C)nn2)ccc1-n1cnc(C)c1 [Example 66, (R)-6-(6-methoxy-5-(4-methyl-1H-imidazol-1-yl)pyridin-2-yl)-4-methyl-N-(3-methylbutan-2-yl)pyridazin-3-amine]
18 | 0.095 µM | COc1nc(-c2cc(C)c(N[C@@H](C)c3ccccn3)nn2)ccc1-n1cnc(C)c1 [Example 67, (S)-6-(6-methoxy-5-(4-methyl-1H-imidazol-1-yl)pyridin-2-yl)-4-methyl-N-(1-(pyridin-2-yl)ethyl)pyridazin-3-amine]
19 | 0.08 µM | COc1nc(-c2cc(C)c(N[C@H](C)c3ccccc3)nn2)ccc1-n1cnc(C)c1 [Example 68, (R)-6-(6-methoxy-5-(4-methyl-1H-imidazol-1-yl)pyridin-2-yl)-4-methyl-N-(1-phenylethyl)pyridazin-3-amine]
20 | 0.0045 µM | COc1nc(-c2cc(C)c(N[C@@H](C)c3ccc(F)cc3C)nn2)ccc1-n1cnc(C)c1 [Example 69, (S)—N-(1-(4-fluoro-2-methylphenyl)ethyl)-6-(6-methoxy-5-(4-methyl-1H-imidazol-1-yl)pyridin-2-yl)-4-methylpyridazin-3-amine]
21 | 0.425 µM | COc1nc(-c2cc(C)c(NC3CC3)nn2)ccc1-n1cnc(C)c1 [Example 70, N-cyclopropyl-6-(6-methoxy-5-(4-methyl-1H-imidazol-1-yl)pyridin-2-yl)-4-methylpyridazin-3-amine]
22 | 0.022 µM | COc1nc(-c2cc(C)c(N[C@@H](CO)c3ccc(F)cc3)nn2)ccc1-n1cnc(C)c1 [Example 71, (R)-2-(4-fluorophenyl)-2-((6-(6-methoxy-5-(4-methyl-1H-imidazol-1-yl)pyridin-2-yl)-4-methylpyridazin-3-yl)amino)ethanol]
23 | 0.0035 µM | COc1nc(-c2cc(C)c(N[C@@H](C)c3c(F)cc(F)cc3F)nn2)ccc1-n1cnc(C)c1 [Example 75, (S)-6-(6-methoxy-5-(4-methyl-1H-imidazol-1-yl)pyridin-2-yl)-4-methyl-N-(1-(2,4,6-trifluorophenyl)ethyl)pyridazin-3-amine]
24 | 0.029 µM | COc1nc(-c2cc(C)c(N[C@@H](C)C(C)(C)C)nn2)ccc1-n1cnc(C)c1 [Example 76, (S)—N-(3,3-dimethylbutan-2-yl)-6-(6-methoxy-5-(4-methyl-1H-imidazol-1-yl)pyridin-2-yl)-4-methyl pyridazin-3-amine]

Source: patent US10472346B2, “Potent gamma-secretase modulators” (The General Hospital Coporation, priority 2014, dated 2019)
